Experimental data published in patent publication US20210393621A1, “COMBINATION SEROTONIN SPECIFIC REUPTAKE INHIBITOR AND SEROTONIN 1A RECEPTOR PARTIAL AGONIST FOR REDUCING L-DOPA-INDUCED DYSKINESIA” (The Research Foundation for The State University of new York, priority 2018, published 2021).
“Also recorded” adds a separate entry of the source.

Assays:
[1] = test system: 6-OHDA-lesioned hemi-parkinsonian rats; assay: Experiment 2: AIMs, LID development in L-DOPA-naive hemi-parkinsonian rats; type: in vivo, Sprague-Dawley rats; conditions: treatment naive rats; VZD 10 or 20 mg/kg + L-DOPA 6 mg/kg, 3 weeks; vs Vilazodone (0 mg/kg)+L-DOPA (6 mg/kg)
Procedure: Baseline forepaw adjusting step (FAS) data was collected 3 weeks after sham or […] lesion surgery, but prior to LD exposure. Sham animals received daily VZD (0 mg/kg)+L-DOPA (0 mg/kg) and 6-OHDA-lesioned animals received daily VZD (0, 10 or 20 mg/kg; s.c.)+LD (6 mg/kg; s.c.). All VZD injections were administered 5 min prior to LD. (FIG. 2A) AIMs and (FIG. 2B) FAS were evaluated on days 1, 8, 15, and 22. AIMs values expressed are the median sum of axial, limb, and orolingual (ALO) behaviors. ALO AIMs were evaluated every 10 min for 3 h post-LD administration. Values are expressed as medians [±median absolute difference (M.A.D.)]. FAS were evaluated 60 min post LD and are expressed as the mean overall steps […] to lesion multiplied by 100.
After recovery, FAS established baseline motor disability. 6-OHDA-lesioned animals were divided into 3 equally disabled groups. […] AIMs ([…]) and FAS (FIG. 2B) were measured on Days 1, 8, 15, and 22 of treatment.
Beginning 10 min post-treatment, a trained and blinded observer assigned a severity score (0-4) to each of the ALO AIMs based on 1 min ratings every 10 min for 3 h: 0, not present; 1, present from 1-29 s; 2, present 30-59 s; 3, present all 60 s, but interruptible by a cylinder tap; 4, present 60 s and not interruptible by a cylinder tap.

[2] = test system: MSNs of dyskinetic 6-OHDA-lesioned rats; assay: Example 2: electrophysiology of corticostriatal transmission and striatal MSN activity; type: in vivo; conditions: vilazodone co-administration with L-DOPA
Procedure: Rats were treated for 5 consecutive days/week, for 2 weeks. On the second day of each week, stepping tests were performed prior to drug administration, and 60 minutes post L-DOPA treatment. Behavioral assessment of LIDs was performed (30-180 min) at the end of each week. […] Electrophysiological studies were conducted to assess the impact of these treatments on corticostriatal transmission and striatal neuronal activity.

[3] = cited from earlier work
5-HT2C = 5-HT2C (Homo sapiens, UniProt P28335); conditions: cited from earlier work
Chain of 5-HT2C (P28335 33-458, species assumed): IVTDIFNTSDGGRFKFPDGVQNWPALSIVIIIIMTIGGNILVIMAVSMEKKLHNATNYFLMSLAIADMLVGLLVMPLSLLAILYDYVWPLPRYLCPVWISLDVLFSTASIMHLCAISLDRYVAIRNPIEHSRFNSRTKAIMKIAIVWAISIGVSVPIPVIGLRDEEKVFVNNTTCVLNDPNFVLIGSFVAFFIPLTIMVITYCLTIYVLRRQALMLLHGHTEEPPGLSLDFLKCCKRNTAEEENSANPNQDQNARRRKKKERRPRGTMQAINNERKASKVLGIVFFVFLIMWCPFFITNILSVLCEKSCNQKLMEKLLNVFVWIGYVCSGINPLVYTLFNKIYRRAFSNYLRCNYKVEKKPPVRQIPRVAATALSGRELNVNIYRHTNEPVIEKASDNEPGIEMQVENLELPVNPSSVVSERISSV

[4] = test system: unilateral 6-OHDA-lesioned rats; assay: Example 2: L-DOPA-induced dyskinesias (LIDs) scoring; type: in vivo, Sprague-Dawley rats; conditions: pretreatment with vilazodone 10 mg/kg or escitalopram 12.5 mg/kg before L-DOPA 5 mg/kg, 2 weeks; hydrochloride
Procedure: 6-OHDA-induced dopaminergic lesions: Adult male Sprague-Dawley rats were randomly assigned to groups receiving either a 6-OHDA or sham lesion. […] [[…] 2019]. […] Rats were treated for 5 consecutive days/week (Mon-Fri), for 2 weeks. […] All rats were evaluated three times per week for the presence of L-DOPA-induced dyskinesias (LIDs) (Wed-Fri) and once for the stepping test (Tue). […] Scores were given over 1 min epochs and classified as axial, limb, orolingual and locomotive. […] Arrows=inhibitory input; dashed arrows=compromised function. The severity of each LID was scored using a standard scale. Each dyskinetic behavior was given an intensity and frequency score, which were then multiplied. The average sum of the products of each LID was determined in each animal.

[5] = test system: L-DOPA-primed 6-OHDA-lesioned rats; assay: Experiment 3: AIMs with 5-HT1AR or 5-HT1BR antagonist before Vilazodone and L-DOPA; type: in vivo, Sprague-Dawley rats
Procedure: In each study, the LD-primed rats received (FIG. 4A) the 5-HT1AR antagonist WAY100635 [WAY; 0 or 0.5 mg/kg, s.c.] or (FIG. 4B) the 5-HT1BR antagonist NAS [NAS; 0 or 0.3 mg/kg, s.c.]) 5 min prior to VZD (0 or 10 mg/kg, s.c.) injected 5 min prior to LD (6 mg/kg, s.c.) in a within-subjects counterbalanced design. ALO AIMs were evaluated and are shown for every 10 min for 3 h after LD administration.
All 6-OHDA-lesioned rats (n=17) were tested on the FAS prior to treatment regimens to establish baseline motor performance. Three-weeks post-surgery, all rats were primed with L-DOPA (6 mg/kg, s.c.) for 14 days.

[6] = target: norepinephrine transporter (NET) (Homo sapiens, UniProt P23975); conditions: read-out: Ki for NET (norepinephrine reuptake site); cited from earlier work
Chain of norepinephrine transporter (NET) (P23975 whole entry): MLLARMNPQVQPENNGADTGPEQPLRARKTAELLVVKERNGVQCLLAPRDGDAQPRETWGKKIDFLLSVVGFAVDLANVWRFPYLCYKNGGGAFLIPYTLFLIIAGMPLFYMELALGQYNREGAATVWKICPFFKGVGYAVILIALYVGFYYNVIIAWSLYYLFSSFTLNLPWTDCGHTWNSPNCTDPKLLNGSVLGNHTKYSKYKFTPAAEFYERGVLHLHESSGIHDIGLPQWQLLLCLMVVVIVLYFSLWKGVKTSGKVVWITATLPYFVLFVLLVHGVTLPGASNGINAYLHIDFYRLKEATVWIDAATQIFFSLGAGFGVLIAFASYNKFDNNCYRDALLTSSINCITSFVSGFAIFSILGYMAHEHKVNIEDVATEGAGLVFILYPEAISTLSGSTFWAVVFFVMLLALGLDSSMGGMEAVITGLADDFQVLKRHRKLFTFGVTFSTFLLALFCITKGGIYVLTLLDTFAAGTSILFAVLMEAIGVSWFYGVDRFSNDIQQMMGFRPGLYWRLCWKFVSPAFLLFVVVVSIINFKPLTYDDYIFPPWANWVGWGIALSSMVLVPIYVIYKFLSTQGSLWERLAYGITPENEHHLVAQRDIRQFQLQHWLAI

5-HT1D = 5-HT1D (Homo sapiens, UniProt P28221); conditions: cited from earlier work
Chain of 5-HT1D (P28221 whole entry, species assumed): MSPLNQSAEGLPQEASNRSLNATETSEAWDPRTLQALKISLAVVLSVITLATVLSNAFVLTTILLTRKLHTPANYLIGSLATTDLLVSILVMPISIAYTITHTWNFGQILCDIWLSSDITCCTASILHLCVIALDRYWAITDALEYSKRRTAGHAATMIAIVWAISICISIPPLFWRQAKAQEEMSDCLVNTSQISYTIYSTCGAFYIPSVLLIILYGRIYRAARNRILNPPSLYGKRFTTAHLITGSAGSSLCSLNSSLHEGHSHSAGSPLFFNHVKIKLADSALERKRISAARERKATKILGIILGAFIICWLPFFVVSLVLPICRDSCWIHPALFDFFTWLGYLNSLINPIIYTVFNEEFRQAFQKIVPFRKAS

[7] = test system: 6-OHDA-lesioned hemi-parkinsonian rats; assay: Experiment 1: forepaw adjusting steps (FAS); type: in vivo, Sprague-Dawley rats
Description: Conti et al., 2014). […] Forepaw adjusting steps (FAS): The FAS test is a measure of forelimb akinesia performed according to previous protocols (Bishop et al., 2012; Chang et al., 1999). Data are presented as mean percent intact stepping where the sum of the total steps with the lesioned forepaw was divided by the total steps with the unlesioned forepaw multiplied by 100. Lower percent intact scores indicate greater forelimb akinesia. Prior to baseline, rats received 2 acclimation periods. On-treatment FAS was performed 60 min post-L-DOPA.

[8] = target: dopamine transporter (DAT) (Homo sapiens, UniProt Q01959); conditions: read-out: Ki for DAT (dopamine reuptake site); cited from earlier work
Chain of dopamine transporter (DAT) (Q01959 whole entry, species assumed): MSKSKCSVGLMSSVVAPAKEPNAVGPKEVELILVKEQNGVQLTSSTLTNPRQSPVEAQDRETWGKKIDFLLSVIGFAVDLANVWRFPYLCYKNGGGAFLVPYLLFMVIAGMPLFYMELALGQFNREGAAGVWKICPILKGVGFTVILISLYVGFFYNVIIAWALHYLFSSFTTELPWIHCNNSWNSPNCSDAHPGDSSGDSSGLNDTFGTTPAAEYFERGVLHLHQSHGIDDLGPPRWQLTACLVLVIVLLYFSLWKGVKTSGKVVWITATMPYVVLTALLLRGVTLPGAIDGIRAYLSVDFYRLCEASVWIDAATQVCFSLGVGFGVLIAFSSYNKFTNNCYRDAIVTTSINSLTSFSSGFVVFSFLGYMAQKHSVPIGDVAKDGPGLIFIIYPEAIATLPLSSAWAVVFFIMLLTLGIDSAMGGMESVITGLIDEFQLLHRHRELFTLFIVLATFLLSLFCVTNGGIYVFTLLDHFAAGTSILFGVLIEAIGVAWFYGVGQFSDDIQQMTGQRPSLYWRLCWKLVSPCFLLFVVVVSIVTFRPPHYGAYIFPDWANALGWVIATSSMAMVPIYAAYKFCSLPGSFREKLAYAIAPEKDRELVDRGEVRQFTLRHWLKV

5-HT1A receptor = target: T1, 5-HT1A receptor (Homo sapiens, UniProt P08908); conditions: cited from earlier work
T1 sequence (P08908 1-422): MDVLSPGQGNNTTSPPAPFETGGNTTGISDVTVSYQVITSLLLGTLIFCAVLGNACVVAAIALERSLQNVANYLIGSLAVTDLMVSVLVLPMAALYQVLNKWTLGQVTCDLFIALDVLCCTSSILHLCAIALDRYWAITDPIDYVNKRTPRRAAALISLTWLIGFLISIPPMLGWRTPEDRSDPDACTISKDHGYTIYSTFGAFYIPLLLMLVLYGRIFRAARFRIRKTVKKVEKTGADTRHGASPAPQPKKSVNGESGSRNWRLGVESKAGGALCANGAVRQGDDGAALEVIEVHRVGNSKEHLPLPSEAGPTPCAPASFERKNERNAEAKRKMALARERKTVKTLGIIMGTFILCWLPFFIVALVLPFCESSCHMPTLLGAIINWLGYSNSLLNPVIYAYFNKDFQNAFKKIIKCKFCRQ

[9] = administered with either a fatty or light meal

Cl.N#Cc1ccc2[nH]cc(CCCCN3CCN(c4ccc5oc(C(N)=O)cc5c4)CC3)c2c1 [Vilazodone, 5-{4-[4-(5-cyano-3-indolyl)-butyl]-1-piperazinyl}-benzofuran-2-carboxamide hydrochloride]
ALO AIMs, development of LID [1]: significantly attenuated the development of LID | spike probability and onset latency [2]: normalizes spike probability and onset latency | AUC increase [3, 9]: 64%-85% | Cmax increase [3, 9]: 147%-160% | bioavailability ([3]; under fed conditions): 72% | affinity for 5-HT2C (5-HT2C): negligible affinity | LIDs score / severity [4]: most significant effect on attenuating LIDs; also recorded: significantly reduced LIDs | ALO AIMs, 5-HT1BR study ([5]; NAS-181 0 or 3.0 mg/kg, then VZD 0 or 10 mg/kg, then L-DOPA 6 mg/kg, s.c.): significantly reduced ALO AIMs | LID duration, time course ([5]; VZD 10 mg/kg + L-DOPA 6 mg/kg): little effect on LID duration | peak dyskinesia, time course ([5]; VZD 10 mg/kg + L-DOPA 6 mg/kg): reduced peak dyskinesia | summed ALO AIMs, 5-HT1AR study ([5]; WAY100635 0 or 0.5 mg/kg, then VZD 0 or 10 mg/kg, then L-DOPA 6 mg/kg, s.c.): significantly reduced ALO AIMs | Ki [6]: 56 nM | affinity for 5-HT1D (5-HT1D): negligible affinity | FAS motor performance versus baseline ([7]; L-DOPA-primed rats, VZD 0, 10 or 20 mg/kg + L-DOPA 6 mg/kg, 60 min post-L-DOPA): improvements in rats treated with Vilazodone emerged 7 days later | FAS stepping versus Vilazodone (0 mg/kg)+L-DOPA (6 mg/kg) ([7]; VZD 20 mg/kg, Day 29, effect transient): depressed stepping | Ki [8]: 37 nM | 5-HT1A receptor IA (5-HT1A receptor): 60-70%
